Here are results for three molecules from patent publication US20260078398A1, “PLANTS GENETICALLY ENGINEERED FOR INCREASED WATER USE EFFICIENCY AND CARBON INTAKE AND METHODS FOR MAKING AND USING THEM” (The Regents of the University of California, priority 2022, published 2026).

The target in data set [1] is T1, MPK4/12, HT1 and CBC1 recombinant proteins (Arabidopsis thaliana, UniProt Q2MHE4).
T1 construct: His; made in house
The experiment in a line: in vitro phosphorylation assay: NaHCO3-dependent down-regulation of HT1-mediated CBC1 phosphorylation. The settings on record: HT1 and CBC1 only, no MPK4/MPK12; 20 mM NaHCO3, 30 min. Format: biochemical. The method, then:
(§1) We tested whether this HT1-mediated activation of CBC1 is inhibited by CO2/bicarbonate by adding NaHCO3 in in vitro phosphorylation reactions. […]
(§2) FIG. 2. […] Histone was used as an artificial protein kinase substrate. • (B) MPK4, HT1 and CBC1 proteins were incubated with NaHCO3 at the indicated concentrations for 30 min, and in vitro phosphorylation assays were performed. • (C) CBC1 band intensities as shown in (B) were measured using IMAGEJ™, n=4 experiments, error bars show ±S.D. • (D) MPK4, HT1 and CBC1 proteins were incubated in reaction buffers adjusted at different pH (6.5 to 8.5) for 30 min, and in vitro phosphorylation assays were performed. • (E) CBC1 band intensities and the density-ratios of ‘+NaHCO3’ to ‘—NaHCO3’ (=+NaCl controls) for each pH condition
(§3) FIG. 3. […] Ambient CO2 concentrations are indicated by the top bars. n=7 experiments, error bars show ±SEM. • (C) Recombinant HT1 (wild type, HT1-G89R or HT1-R173Q) and CBC1 proteins were incubated with MPK4 in the presence or absence of 20 mM NaHCO3 or 20 mM NaCl (−controls) for 30 min, and in vitro phosphorylation assays were performed. • (D) Recombinant MPK12, CBC1 and HT1 (WT or R102K) proteins were incubated with or without 20 mM NaHCO3 or 20 mM NaCl (−controls) for 30 min, and in vitro phosphorylation assays were performed. Histone was used as an artificial kinase substrate. • (E) HT1 (WT or A109V) proteins were used for in vitro phosphorylation assays. Proteins were incubated with or without 20 mM NaHCO3 or 20 mM NaCl (−controls) for 30 min. • (F) Stomatal conductances were analyzed using intact plants of Arabidopsis (Col-0 (WT), cbc1 cbc2, ht1-A109V and cbc1 cbc2 ht1-A109V). CO2 concentration changes were applied as indicated on top (p.p.m.). […]

Data set [2] has as its target T2, MPK4/12, HT1 and CBC1 recombinant proteins (Arabidopsis thaliana, UniProt Q2MHE4+Q39024).
T2 construct: His; made in house
The data set is described as above. Format: biochemical. The method, then: as §1, §2, §3

Data set [3] concerns MPK4/12, HT1 and CBC1 recombinant proteins. The description is as above. Format: biochemical, Arabidopsis. The method, then:
as §1, §2, §3

For data set [4], the target named is T3, MPK4 and HT1 (Arabidopsis thaliana, UniProt Q2MHE4+Q39024).
T3 construct: made in house
As to the kind of experiment: in vitro pull-down assay, His-HT1 with GST-MPK4. It counts as binding. To be noted: 20 mM NaHCO3 in all buffers. The method, then: (§4) We therefore investigated a possible binding between MPK4 and HT1 and the effect of HCO3^−.
(§5) FIG. 4. […] CO2 concentration changes were applied as indicated on top (p.p.m.). n=6 experiments, error bars show ±SEM. • (J) Model of plant stomatal CO2 sensor and signaling (see text).
(§6) FIG. 6. […] Precipitated proteins were washed with buffers supplemented with NaHCO3 at the indicated concentrations (0, 2 or 20 mM). See FIG. 4d for an independent experiment. To control for effects of Na^+, 20 mM NaCl (0 mM NaHCO3) for lanes 1 and 4 were included in the buffers; and 18 mM NaCl (2 mM NaHCO3) for lane 3 were included in buffer.

Another data set relates to S-type anion channels. The settings on record: proposed secondary HCO3- response mechanism (ref. 10); cited from earlier work.
In data set [5] the target is T4, His-HT1 (recombinant Arabidopsis HT1 protein kinase, wild type, with His tag).
T4 chain: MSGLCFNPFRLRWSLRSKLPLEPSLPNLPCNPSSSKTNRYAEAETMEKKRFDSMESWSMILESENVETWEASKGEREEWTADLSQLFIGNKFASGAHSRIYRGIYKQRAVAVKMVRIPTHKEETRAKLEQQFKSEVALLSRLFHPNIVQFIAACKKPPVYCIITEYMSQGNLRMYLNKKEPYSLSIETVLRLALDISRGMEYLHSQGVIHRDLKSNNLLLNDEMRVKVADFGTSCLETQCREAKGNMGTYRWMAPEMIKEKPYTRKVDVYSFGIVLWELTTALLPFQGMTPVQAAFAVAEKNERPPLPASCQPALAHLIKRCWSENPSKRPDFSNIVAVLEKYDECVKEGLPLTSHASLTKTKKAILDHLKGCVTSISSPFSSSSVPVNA

For another data set, the target named is T5, HT1-G89R (Arabidopsis, UniProt Q2MHE4 1-390).
T5 construct: Recombinant HT1 isoform; No tag is stated for the variant; the wild type in the same pull-down was His-HT1; also called ht1-G89R isoform
T5 sequence: T4 chain with G89R
The experiment in a line: in vitro pull-down with or without NaHCO3 (FIG. 4E, n=3). The protocol:
FIG. 4E illustrates gel protein separation images showing data where in vitro pull-down assays were performed using recombinant HT1 (wild type, HT1-G89R and HT1-R173Q) proteins;
FIG. 4. Bicarbonate inactivates HT1 kinase by stabilizing HT1 interaction with MPK4/12. [0265] (A) Recombinant CBC1, HT1 and MPK4 proteins are incubated with or without 20 mM NaHCO₃ for 30 min, and in vitro phosphorylation assays were performed. [0266] (B) CBC1 and HT1 proteins were incubated with or without 20 mM NaHCO₃ or 20 mM NaCl (“−” controls) in the presence or absence of MPK12 protein. [0267] (C) His-HT1 and GST-MPK4 or GST control proteins were used for in vitro pull-down assays with or without 20 mM NaHCO₃. NaHCO₃ or 20 mM NaCl (“−” controls) were supplemented in all buffers throughout the pull-down assay procedures including the washing step. [0268] […] [0269] (E) In vitro pull-down assays were performed using recombinant HT1 (wild type, HT1-G89R and HT1-R173Q) proteins. [0270] (F) In vitro pull-down assays were performed using HT1-R102K isoform. [0271] (G) In vitro pull-down assays were performed using HT1-A109V isoform. [0272] […] [0273] (I) Stomatal conductances were analyzed in leaves of intact Arabidopsis plants [Col-0 (WT), mpk 12, pGC1:MPK12-GFP/mpk12 and pGC1:MPK12 (K70R)-GFP/mpk12]. CO₂ concentration changes were applied as indicated on top (p.p.m.). n=6 experiments, error bars show ±SEM. [0274] […]

A further data set addresses T6, HT1-R102K (Arabidopsis, UniProt Q2MHE4 1-390).
T6 construct: Recombinant HT1 isoform; No tag is stated for the variant
T6 sequence: T4 chain with R102K
As to the kind of experiment: in vitro pull-down with or without NaHCO3 (FIG. 4F, n=3).

For a further data set, the target named is T7, HT1-A109V (Arabidopsis, UniProt Q2MHE4 1-390).
T7 construct: Recombinant HT1 isoform; No tag is stated for the variant; also called ht1-A109V isoform
T7 sequence: T4 chain with A109V
As to the kind of experiment: in vitro pull-down with or without NaHCO3 (FIG. 4G, n=3).

In data set [6] the test system is MPK4 and HT1. The experiment in a line: in vitro pull-down assay, His-HT1 with GST-MPK4. It counts as binding, Arabidopsis. To be noted: pull-down with or without 20 mM NaHCO3. The protocol:
as §4, §5, §6

Residue numbers refer to the chain shown, from its start. Numbers in names are those of the source.

On to `O=C(O)O` [NaHCO3], for which the “effect of NaHCO3 on CBC1 phosphorylation level” value in [1] was “no clear effect”. The EC50 in [2] was roughly 7.1 mM. Further, the “effect of NaHCO3 on CBC1 phosphorylation at different pH” value in data set [2] (MPK4 and HT1 present, high pH conditions at ≥pH 7.5 (buffers pH 6.5 to 8.5)) is recorded as “inhibited CBC1 phosphorylation”. For the same molecule, the “effect of NaHCO3 on CBC1 and histone phosphorylation” value in data set [3] (MPK4 or MPK12 added to HT1 and CBC1, 20 mM NaHCO3, 30 min) is “inhibited both CBC1 phosphorylation and histone phosphorylation”. The “kinase activities of CBC1, HT1 or MPK4 exposed to NaHCO3 individually” value in [3] (each kinase alone, 20 mM NaHCO3, 30 min) is “not affected”. The “CBC1 activity in response to NaHCO3” value in data set [3] (only MPK12 and CBC1 in the reaction, no HT1, 20 mM NaHCO3) is “not affected”. Moreover, the “HT1 kinase activity in response to NaHCO3” value in data set [3] (only in the presence of MPK12, 20 mM NaHCO3) is given as “inhibited”. Further, the “effect of HCO3- on binding between MPK4 and HT1” value on MPK4 and HT1 [4] was “greatly enhanced the binding”. In addition, in the data set with S-type anion channels, the “modulation of activity of S-type anion channels by HCO3-” value is roughly 20%.

B1: GST-MPK4 (recombinant Arabidopsis MAP kinase MPK4 with GST tag) (enzyme)
chain: MSAESCFGSSGDQSSSKGVATHGGSYVQYNVYGNLFEVSRKYVPPLRPIGRGAYGIVCAATNSETGEEVAIKKIGNAFDNIIDAKRTLREIKLLKHMDHENVIAVKDIIKPPQRENFNDVYIVYELMDTDLHQIIRSNQPLTDDHCRFFLYQLLRGLKYVHSANVLHRDLKPSNLLLNANCDLKLGDFGLARTKSETDFMTEYVVTRWYRAPELLLNCSEYTAAIDIWSVGCILGETMTREPLFPGKDYVHQLRLITELIGSPDDSSLGFLRSDNARRYVRQLPQYPRQNFAARFPNMSAGAVDLLEKMLVFDPSRRITVDEALCHPYLAPLHDINEEPVCVRPFNFDFEQPTLTEENIKELIYRETVKFNPQDSV
notes: The tag is placed at the N-terminus only because of the printed name GST-MPK4; The phosphorylation assays say only 'MPK4' and name no tag; also called AtMPK4; AT4G01370; not shown: GST tag
Turning to B1, the “CBC1 and histone phosphorylation in vitro (HT1 + CBC1 + MPK4, 20 mM NaHCO3; FIG. 2A, n>6)” value in data set [5] was “when MPK4 or MPK12 were added to the reaction, we found that the addition of NaHCO3, but not NaCl, inhibited both CBC1 phosphorylation and histone phosphorylation in vitro”. For the same molecule, the binding result with HT1-G89R, in the data set with HT1-R102K and with HT1-A109V was “no binding” throughout.

B2: HT1-A109V (protein)
chain: T4 chain with A109V
Take B2: in the data set with MPK4/12, the “NaHCO3-triggered down-regulation of CBC1 phosphorylation and CBC1 activity, in vitro phosphorylation assay with MPK4/12 and CBC1 (FIG. 3E, n=4)” value is “both of these R102K and A109V mutations disrupt the NaHCO3-triggered down-regulation of CBC1 phosphorylation and CBC1 activity”. Further, the “NaHCO3-mediated down-regulation of CBC1 phosphorylation/activity with the protein isoform in the reaction” value in data set [3] (isoform replaces wild type protein or is added, 20 mM NaHCO3 vs NaCl control, 30 min) is “disrupt the NaHCO3-triggered down-regulation of CBC1 phosphorylation and CBC1 activity”. The “HCO3- dependent binding of HT1 isoform with MPK4” value with MPK4 and HT1 [6] is reported as “did not show a bicarbonate-induced interaction of HT1 with MPK4”.

Broadly, the EC50 is the midpoint of the concentration-response curve.
